Results: patent publication EP4800016A1, “METTL3 INHIBITOR” (Hangzhou Bangshun Pharmaceutical Co., Ltd., priority 2023, dated 2025)

Target: T1, METTL3/14 (Homo sapiens, UniProt Q86U44)
T1 construct: purchased active motif 31570
Assay: METTL3/14 methyltransferase activity assay (HTRF)
Assay type: biochemical
Details: 10 concentrations, 3-fold dilution from 10 µM
Protocol: The final initial concentration of the compound was 10 µM, with 3-fold serial dilution to give a total of 10 concentrations. 100 nL of the compound was transferred to a 384-well plate and centrifuged at 1000 RPM. 2.5 µL of METTL3/14 (active motif, Cat No. 31570) was added to the test wells and incubated at 25°C for 10 min. 2.5 µL of METTL3-Biotin & SAM (GenScript) was added to the test wells andincubated at 25°C for 60 min. 2.5 µL of YTHDF1 (active motif, Cat No. 31608) was added to the test wells and centrifuged at 1000 RPM. 2.5 µL of Streptavidin-Tb (Perkin Elmer Cat No. 61SATLB) & Flag-mede (Perkin Elmer Cat No. 61FG2DLA) was added to the test wells and centrifuged at 1000 RPM. Incubated at 25°C for 60 min. HTRF was measured using a Plate reader. The results of each compound are shown in Table 1, where A+indicates <10nM, A indicates 10-100nM, B indicates 100-1000nM, and C indicates >1000nM.

T1 sequence (Q86U44 whole entry): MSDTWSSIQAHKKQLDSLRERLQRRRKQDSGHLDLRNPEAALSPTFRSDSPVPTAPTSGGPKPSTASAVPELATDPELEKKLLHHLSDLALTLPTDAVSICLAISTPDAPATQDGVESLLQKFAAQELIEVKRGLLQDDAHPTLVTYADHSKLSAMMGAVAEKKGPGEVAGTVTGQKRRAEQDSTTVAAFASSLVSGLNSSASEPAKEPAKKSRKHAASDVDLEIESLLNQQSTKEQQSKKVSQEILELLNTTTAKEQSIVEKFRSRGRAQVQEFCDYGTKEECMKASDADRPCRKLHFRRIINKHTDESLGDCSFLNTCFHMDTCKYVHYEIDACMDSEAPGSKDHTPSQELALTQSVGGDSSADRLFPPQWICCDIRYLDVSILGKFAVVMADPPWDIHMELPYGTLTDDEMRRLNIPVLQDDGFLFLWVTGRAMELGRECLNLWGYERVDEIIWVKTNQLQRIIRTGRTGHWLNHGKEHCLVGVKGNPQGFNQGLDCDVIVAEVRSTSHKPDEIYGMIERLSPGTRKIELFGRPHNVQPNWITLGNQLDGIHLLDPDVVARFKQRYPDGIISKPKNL
T1 sequence (Q9HCE5 whole entry partner): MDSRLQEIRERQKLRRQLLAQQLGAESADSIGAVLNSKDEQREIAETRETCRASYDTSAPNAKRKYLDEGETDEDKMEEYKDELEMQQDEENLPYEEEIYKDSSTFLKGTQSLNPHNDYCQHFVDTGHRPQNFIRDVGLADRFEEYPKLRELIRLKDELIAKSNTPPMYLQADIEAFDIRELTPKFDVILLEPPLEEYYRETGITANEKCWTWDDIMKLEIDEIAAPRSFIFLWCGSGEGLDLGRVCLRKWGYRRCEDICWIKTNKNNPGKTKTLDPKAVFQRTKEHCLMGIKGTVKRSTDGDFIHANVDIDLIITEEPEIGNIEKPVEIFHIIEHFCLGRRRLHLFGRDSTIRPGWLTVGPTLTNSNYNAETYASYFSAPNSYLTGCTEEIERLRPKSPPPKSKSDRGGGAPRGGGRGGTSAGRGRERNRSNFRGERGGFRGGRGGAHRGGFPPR

SMILES	IC50
O=C(NCc1ccc2cc(CNCC3CCC3)[nH]c2c1)c1cn2ncccc2n1 [Example 1, N-((2-(((Cyclobutylmethyl)amino)methyl)-1H-indol-6-yl)methyl)imidazo[1,2-b]pyridazine-2-carboxamide]	10 to 100 nM
O=C(NCc1ccc2cc(CNCC3CCC3)[nH]c2c1)c1cc2ncccn2n1 [Example 2, N-((2-(((Cyclobutylmethyl)amino)methyl)-1H-indol-6-yl)methyl)pyrazolo[1,5-a]pyrimidine-2-carboxamide]	10 to 100 nM
O=C(NCc1ccc2cc(CNCC3CCC3)[nH]c2c1)c1cnn2cccnc12 [Example 3, N-((2-(((Cyclobutylmethyl)amino)methyl)-1H-indol-6-yl)methyl)pyrazolo[1,5-a]pyrimidine-3-carboxamide]	10 to 100 nM
O=C(NCc1ccc2cc(CNCC3CCC3)[nH]c2c1)c1cn2nccc(N3CCOCC3)c2n1 [Example 8, N-((2-(((Cyclobutylmethyl)amino)methyl)-1H-indol-6-yl)methyl)-8-morpholinoimidazo[1,2-b]pyridazine-2-carboxamide]	100 to 1000 nM
O=C(NCc1ccc2cc(CNCC3CCC3)[nH]c2c1)c1ccn(Cc2ccccc2)c(=O)c1 [Example 11, 1-Benzyl-N-((2-(((cyclobutylmethyl)amino)methyl)-1H-indol-6-yl)methyl)-2-oxo-1,2-dihydropyridine-4-carboxamide]	10 to 100 nM
CNc1nc(C(=O)NCc2ccc3cc(CNCC4CCC4)[nH]c3c2)cn2nccc12 [Example 13, N-((2-(((Cyclobutylmethyl)amino)methyl)-1H-indol-6-yl)methyl)-4-(methylamino)pyrazolo[1,5-a]pyrazine-6-carboxamide]	10 to 100 nM
COc1ccc(CNc2nc(C(=O)NCc3ccc4cc(CNCC5CCC5)[nH]c4c3)cn3nccc23)cc1 [Example 14, N-((2-(((Cyclobutylmethyl)amino)methyl)-1H-indol-6-yl)methyl)-4-((4-methoxybenzyl)amino)pyrazolo[1,5-a]pyrazine-6-carboxamide]	10 to 100 nM
O=C(NCc1ccc2cc(CNCC3CCC3)[nH]c2c1)c1cn2nccc2c(N2CCCC2)n1 [Example 15, N-((2-(((Cyclobutylmethyl)amino)methyl)-1H-indol-6-yl)methyl)-4-(pyrrolidin-1-yl)pyrazolo[1,5-a]pyrazine-6-carboxamide]	100 to 1000 nM
O=C(NCc1cc2ccc(CNCC3CCC3)cc2[nH]1)c1cc(=O)n2ccccc2n1 [Example 21, N-((6-(((Cyclobutylmethyl)amino)methyl)-1H-indol-2-yl)methyl)-4-oxo-4H-pyrido[1,2-a]pyrimidine-2-carboxamide]	100 to 1000 nM
O=C(NCc1ccc2cc(CN3CCC(F)(F)CC3)[nH]c2c1)c1cc(=O)n2cc3c(cc2n1)OCCO3 [Example 27]	10 to 100 nM
O=C(NCc1ccc2cc(CNCC3CC(=C(F)F)C3)[nH]c2c1)c1cc(=O)n2cc3c(cc2n1)OCCO3 (stereo not shown) [Example 28, N-((2-((((3-(Difluoromethylene)cyclobutyl)methyl)amino)methyl)-1H-indol-6-yl)methyl)-9-oxo-2,3-dihydro-9H-[1,4]dioxino[2',3':4,5]pyrido[1,2-a]pyrimidine-7-carboxamide]	100 to 1000 nM
O=C(NCc1ccc2cc(CN3CCC(F)(F)CC3)[nH]c2c1)c1cc(=O)n2cc3c(cc2n1)OCO3 [Example 29, N-((2-((4,4-Difluoropiperidin-1-yl)methyl)-1H-indol-6-yl)methyl)-8-oxo-8H-[1,3]dioxolo[4',5':4,5]pyrido[1,2-a]pyrimidine-6-carboxamide]	10 to 100 nM
O=C(NCc1ccc2cc(CNCC3CCC3)[nH]c2c1)c1cc(=O)n2cc3c(cc2n1)OC(F)(F)O3 [Example 30, N-((2-(((Cyclobutylmethyl)amino)methyl)-1H-indol-6-yl)methyl)-2,2-difluoro-8-oxo-8H-[1,3]dioxolo[4',5':4,5]pyrido[1,2-a]pyrimidine-6-carboxamide]	10 to 100 nM
O=C(NCc1cc2[nH]c(CNCC3CCC3)cc2s1)c1cc(=O)n2cc3c(cc2n1)OCCO3 [Example 31, N-((5-(((cyclobutylmethyl)amino)methyl)-4H-thieno[3,2-b]pyrrol-2-yl)methyl)-9-oxo-2,3-dihydro-9H-[1,4]dioxino[2',3':4,5]pyrido[1,2-a]pyrimidine-7-carboxamide]	10 to 100 nM
O=C(NCc1ccc2cc(CN3CCc4ccccc4C3)[nH]c2c1)c1cc(=O)n2cc3c(cc2n1)OCO3 [Example 34, N-((2-((3,4-dihydroisoquinolin-2(1H)-yl)methyl)-1H-indol-6-yl)methyl)-8-oxo-8H-[1,3]dioxolo[4',5':4,5]pyrido[1,2-a]pyrimidine-6-carboxamide]	10 to 100 nM
O=C(NCc1ccc2cc(CNC3CCC(F)(F)CC3)[nH]c2c1)c1cc(=O)n2cc3c(cc2n1)OCO3 [Example 37, N-((2-(((4,4-Difluorocyclohexyl)amino)methyl)-1H-indol-6-yl)methyl)-8-oxo-8H-[1,3]dioxolo[4',5':4,5]pyrido[1,2-a]pyrimidine-6-carboxamide]	10 to 100 nM
O=C(NCc1ccc2cc(CNC3CC(F)(F)C3)[nH]c2c1)c1cc(=O)n2cc3c(cc2n1)OCO3 [Example 39, N-((2-(((3,3-Difluorocyclobutyl)amino)methyl)-1H-indol-6-yl)methyl)-8-oxo-8H-[1,3]dioxolo[4',5':4,5]pyrido[1,2-a]pyrimidine-6-carboxamide]	10 to 100 nM
O=C(NCc1ccc2cc(CNCC3(C(F)(F)F)CC3)[nH]c2c1)c1cc(=O)n2cc3c(cc2n1)OCO3 [Example 40, 8-Oxo-N-((2-((((1-(trifluoromethyl)cyclopropyl)methyl)amino)methyl)-1H-indol-6-yl)methyl)-8H-[1,3]dioxolo[4',5':4,5]pyrido[1,2-a]pyrimidine-6-carboxamide]	10 to 100 nM
O=C(NC1(c2ccc3cc(CNCC4CCC4)[nH]c3c2)CC1)c1cc(=O)n2cc3c(cc2n1)OCO3 [Example 42, N-(1-(2-(((Cyclobutylmethyl)amino)methyl)-1H-indol-6-yl)cyclopropyl)-8-oxo-8H-[1,3]dioxolo[4',5':4,5]pyrido[1,2-a]pyrimidine-6-carboxamide]	100 to 1000 nM
O=C(NC1(c2ccc3cc(CNCC4CCC4)[nH]c3c2)CC1)c1cc(=O)n2cc3c(cc2n1)OCCO3 [Example 43, N-(1-(2-(((Cyclobutylmethyl)amino)methyl)-1H-indol-6-yl)cyclopropyl)-9-oxo-2,3-dihydro-9H-[1,4]dioxino[2',3':4,5]pyrido[1,2-a]pyrimidine-7-carboxamide]	10 to 100 nM
O=C(NCc1ccc2cc(CNCC3(C(F)(F)F)CCC3)[nH]c2c1)c1cc(=O)n2cc3c(cc2n1)OCO3 [Example 56, 8-Oxo-N-((2-((((1-(trifluoromethyl)cyclobutyl)methyl)amino)methyl)-1H-indol-6-yl)methyl)-8H-[1,3]dioxolo[4',5':4,5]pyrido[1,2-a]pyrimidine-6-carboxamide]	10 to 100 nM
O=C(NCc1ccc2cc(CNCC3CC4(CCC4)C3)[nH]c2c1)c1cc(=O)n2cc3c(cc2n1)OCO3 [Example 58, 8-Oxo-N-((2-(((spiro[3.3]heptan-2-ylmethyl)amino)methyl)-1H-indol-6-yl)methyl)-8H-[1,3]dioxolo[4',5':4,5]pyrido[1,2-a]pyrimidine-6-carboxamide]	10 to 100 nM
